Source: patent US20100069494A1, “LOWERING OF PROTEINS ASSOCIATED WITH ALZHEIMER'S DISEASE BY INTERRUPTING GENE TRANSCRIPTION WITH A SMALL MOLECULE” (BOARD OF GOVERNORS FOR HIGHER EDUCATION, STATE OF RHODE …, priority 2007, published 2010)

Key:
[1] = molecular target: T1, SP1 (Mus musculus, UniProt O89090); test: Oral tolfenamic acid in mice, Western blot of SP1 in brain; format: in vivo, mice (C57BL/6); conditions: oral gavage 10 or 50 mg/Kg in corn oil on alternate days, Western blot (FIG. 6A)
T1 construct: various brain regions were isolated and stored at −70° C; from tissue; host or cells: brain of adult C57BL/6 mice
Procedure: (§1) The Oral Administration of Tolfenamic acid to mice lowers SP1, APP, and Aβ levels in the brain (See FIG. 6). Mice were dosed on alternate days by oral gavage with 10 or 50 mg/Kg of tolfenamic acid in corn oil or vehicle alone. Tolfenamic acid (TFA) lowered APP levels by about 50% and Aβ by about 20%. […] FIG. 6A is a representative Western blot of SP1. FIG. 6B is a Western blot analysis of APP expressed as a ratio of a housekeeping gene, FIG. 6C is Aβ analysis by ELISA. Each bar represents the mean of data obtained from 6-9 animals. Data from both doses was combined after statistical analysis. Values marked with an ‘*’ are statistically significant, p<0.0.5.
Animal Exposure: Adult mice (C57BL/6) were obtained from Jackson labs (Maine). They were divided into 2 groups viz., Con (C), drug treated (D). The drug, toelfenamic acid was dissolved in corn oil and administered at various concentrations from 10 mg/Kg to 100 mg/Kg in corn oil by oral gavage. Control mice were dosed with corn oil only. Treatment was given on alternate days for one month. At the end of the exposure period the animals were decapitated following exposure to CO2 and hypothermia and various brain regions were isolated and stored at −70° C. This protocol has been approved by the IACUC of the University of Rhode Island. […]

[2] = tested on: APP; test: Oral tolfenamic acid in mice, Western blot analysis of APP in brain; format: in vivo, mice (C57BL/6); conditions: oral gavage 10 or 50 mg/Kg in corn oil on alternate days, ratio to housekeeping gene, both doses combined (FIG. 6B)
Procedure: as §1, with “p<0.0.5. Animal Exposure: Adult mice (C57BL/6) were obtained from Jackson labs (Maine). They were divided into 2 groups viz., Con (C), drug treated (D). The drug, toelfenamic acid was dissolved in corn oil and administered at various concentrations from 10 mg/Kg to 100 mg/Kg in corn oil by oral gavage. Control mice were dosed with corn oil only. Treatment was given on alternate days for one month. At the end of the exposure period the animals were decapitated following exposure to CO2 and hypothermia and various brain regions were isolated and stored at −70° C. This protocol has been approved by the IACUC of the University of Rhode Island. […]” for “p<0.0.5.”

[3] = tested on: Aβ; test: Oral tolfenamic acid in mice, Aβ analysis by ELISA in brain; format: in vivo, mice (C57BL/6); conditions: oral gavage 10 or 50 mg/Kg in corn oil on alternate days, both doses combined (FIG. 6C)
Procedure: The Oral Administration of Tolfenamic acid to mice lowers SP1, APP, and Aβ levels in the brain (See FIG. 6). Mice were dosed on alternate days by oral gavage with 10 or 50 mg/Kg of tolfenamic acid in corn oil or vehicle alone. Tolfenamic acid (TFA) lowered APP levels by about 50% and Aβ by about 20%. […] FIG. 6A is a representative Western blot of SP1. FIG. 6B is a Western blot analysis of APP expressed as a ratio of a housekeeping gene, FIG. 6C is Aβ analysis by ELISA. Each bar represents the mean of data obtained from 6-9 animals. Data from both doses was combined after statistical analysis. Values marked with an ‘*’ are statistically significant, p<0.0.5. Animal Exposure: Adult mice (C57BL/6) were obtained from Jackson labs (Maine). They were divided into 2 groups viz., Con (C), drug treated (D). The drug, toelfenamic acid was dissolved in corn oil and administered at various concentrations from 10 mg/Kg to 100 mg/Kg in corn oil by oral gavage. Control mice were dosed with corn oil only. Treatment was given on alternate days for one month. […] ELISA Assays: Aβ-40 and Aβ-42 levels were measured using a combination of monoclonal antibody (mAb) 6E10 (specific to an epitope present on 1-16 amino acid residues of Aβ) and R162, and R164 respectively in a double-antibody sandwich ELISA (Mehta et al., 1998; Morishima-Kawashima et al., 2000; Basha et al., 2005).

[4] = tested on: Sp1, Sp3 and Sp4; conditions: pancreatic cancer cells and tumors; background statement; cited from earlier work

T1 sequence (O89090 whole entry): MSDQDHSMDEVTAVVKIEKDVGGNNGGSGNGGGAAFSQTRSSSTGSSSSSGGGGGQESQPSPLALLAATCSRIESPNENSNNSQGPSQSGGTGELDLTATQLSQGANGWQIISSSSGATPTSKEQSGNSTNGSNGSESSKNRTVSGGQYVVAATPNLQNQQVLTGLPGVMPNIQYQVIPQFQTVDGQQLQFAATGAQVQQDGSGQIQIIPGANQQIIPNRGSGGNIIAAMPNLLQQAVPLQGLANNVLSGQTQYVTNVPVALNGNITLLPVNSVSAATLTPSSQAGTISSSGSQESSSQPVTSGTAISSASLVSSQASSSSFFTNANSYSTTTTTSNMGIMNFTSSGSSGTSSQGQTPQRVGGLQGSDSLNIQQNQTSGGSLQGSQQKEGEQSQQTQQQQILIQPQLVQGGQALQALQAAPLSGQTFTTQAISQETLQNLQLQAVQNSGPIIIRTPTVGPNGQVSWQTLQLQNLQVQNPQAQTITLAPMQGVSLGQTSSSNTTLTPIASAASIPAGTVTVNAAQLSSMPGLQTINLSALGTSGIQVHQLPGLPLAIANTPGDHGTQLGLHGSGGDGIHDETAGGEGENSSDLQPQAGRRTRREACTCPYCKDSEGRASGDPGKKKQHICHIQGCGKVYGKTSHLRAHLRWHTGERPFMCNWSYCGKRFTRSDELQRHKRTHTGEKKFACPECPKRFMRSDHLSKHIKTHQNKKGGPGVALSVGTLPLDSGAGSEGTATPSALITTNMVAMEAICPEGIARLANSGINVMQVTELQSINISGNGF

Cc1c(Cl)cccc1Nc1ccccc1C(=O)O [Tolfenamic acid]
SP1 levels in the brain [1]: lowers | lowering of APP levels [2]: about 50% | lowering of Aβ levels [3]: about 20% | degradation of Sp1, Sp3 and Sp4 [4]: can induce proteasome-dependent degradation of Sp1, Sp3 and Sp4
